# Experimental data: patent US12370155B2, “Anticancer composition” (NOAHM INC., priority 2018, dated 2025)
# Structures can show the parent of a compound that is named as a salt.
# Assays:
# Assay type in all cases: in vivo, BALB/c nude mice
# [1] = tested on: 4T1 cells, breast cancer cells; experiment: Tumor volume in 4T1 tumor-bearing mice; conditions: day 18 of administration; intraperitoneal; MET 250, 2DG 500, IP6 500, Ins 500 mg/kg (four-combination: IP6 250 + Ins 250 mg/kg); control 1486.8±67.0; mean±SD
# Method: (§1) Five-week-old, female specific pathogen free BALB/c nude mice were purchased and used from Orient Bio Co., Ltd. After quarantine and adaptation for one week, healthy animals without weight loss were selected and used in the test. The test animals were raised in a breeding environment set at a temperature of 23±3° C., a relative humidity of 50±10%, the ventilation number of 10 to 15 times/hour, lighting time of 12 hours (08:00 to 20:00), and illuminance of 150 to 300 Lux. During a pre-test period, the test animals were allowed to freely consume solid feed for the test animals (Cargill Agripurina Co., Ltd.) and drinking water.
# (§2) After an adaptation period for one week, in BALB/c nude mice, 4T1 cells (1×10 ^5 cells/mouse), breast cancer cells, were injected to the left breast adipose tissues of the test animals, and then the tumor tissues were visually observed. When the tumor tissue size of the test animals was about 100 mm ^3, the test animals were divided into 9 test groups based on a randomized block design. That is, the 9 test groups were classified into a control group, a MET group (MET 250 mg/kg), a 2DG group (2DG 500 mg/kg), an Ins group (Ins 500 mg/kg), a IP6 group (IP6 500 mg/kg), a MET+2DG group (MET 250 mg/kg+2DG 500 mg/kg), a MET+2DG+Ins group (MET 250 mg/kg+2DG 500 mg/kg+Ins 500 mg/kg), a MET+2DG+IP6 group (MET 250 mg/kg+2DG 500 mg/kg+IP6 500 mg/kg), a MET+2DG+IP6+Ins group (MET 250 mg/kg+2DG 500 mg/kg+IP6 250 mg/kg+Ins 250 mg/kg), and each test group used 10 test animals. The test substance was dissolved in distilled water and intraperitoneally administered at fixed time for 18 days.
# The body weight of the test animal during the test period was measured at a fixed time once a week from the test substance administration date. A tumor volume was measured by using a digital caliper every three days, the length and width of the tumor were measured, and the tumor volume was calculated by substituting the following Equation. Tumor volume (mm^3)=(width^2×length)/2
# [2] = tested on: 4T1 cells, breast cancer cells; experiment: Tumor weight in 4T1 tumor-bearing mice; conditions: day 19 of administration; intraperitoneal; MET 250, 2DG 500, IP6 500, Ins 500 mg/kg (four-combination: IP6 250 + Ins 250 mg/kg); control 1.244±0.22; mean±SD
# Method: as §1, §2
# […] The blood was placed in a serum separate tube (Becton Dickinson) and left at room temperature for 30 minutes and centrifuged at 3,000 rpm for 20 minutes to isolate serum and the isolated serum was stored at −70° C. until analysis. […] Tumors were weighed and some were fixed in 10% neutral buffered formalin (NBF, Sigma-Aldrich Co.) and embedded in paraffin to perform tissue immunostaining. The lung was fixed with a Bouin's solution (Sigma-Aldrich Co.), and the tumor nodule metastasized to the lung was observed and a lung metastasis rate was examined.
# [3] = tested on: 4T1 cells, breast cancer cells; experiment: Incidence of lung metastasis in 4T1 tumor animal model; conditions: 10 animals per group; intraperitoneal; control 100%
# Method: as §1, §2
# After 14 days of administration of the test substance, the test animals were anesthetized using an anesthetic made by diluting tribromoethanol with tert-amyl alcohol and the blood was collected from the orbit. The blood was placed in a serum separate tube (Becton Dickinson) and left at room temperature for 30 minutes and centrifuged at 3,000 rpm for 20 minutes to isolate serum and the isolated serum was stored at −70° C. until analysis. After taking the blood from the test animals, the tumor was extracted and weighed. Tumors were weighed and some were fixed in 10% neutral buffered formalin (NBF, Sigma-Aldrich Co.) and embedded in paraffin to perform tissue immunostaining. The lung was fixed with a Bouin's solution (Sigma-Aldrich Co.), and the tumor nodule metastasized to the lung was observed and a lung metastasis rate was examined.
SMILES,tumor volume [1] [mm^3],tumor weight [2] [g],incidence of lung metastasis [3] [%]
"OCC1O[C@H](O)C[C@@H](O)[C@@H]1O (mixture of isomers) [2DG, 2-deoxy-D-glucose]",1350.3±55.2,1.092 ± 0.18,100
"O[C@H]1[C@H](O)[C@@H](O)[C@H](O)[C@@H](O)[C@H]1O [Ins, myo-inositol]",1190.1±67.3,0.904 ± 0.20,90
"CN(C)C(=N)NC(=N)N [MET, Metformin HCl]",1400.5±58.6,1.134 ± 0.15,100
"O=P(O)(O)O[C@H]1[C@H](OP(=O)(O)O)[C@@H](OP(=O)(O)O)[C@H](OP(=O)(O)O)[C@@H](OP(=O)(O)O)[C@H]1OP(=O)(O)O [IP6, inositol hexaphosphate]",1108.5±66.3,0.874 ± 0.18,90
